Columns and labels:
PI3K isoform p1103 = PI3K isoform p1103 (Homo sapiens, UniProt P42338); assay: Inhibition of PI3K isoform p110β; assay type: biochemical
pre-brown adipocytes = assay: Immortalized neonatal (pre-)brown adipocytes treated with PI3K inhibitors: phospho-Akt and Ucp1 mRNA; assay type: cell-based, mice; conditions: 4 h
Method: Pre-brown adiposcytes were treated with Compound A or with the indicated PI3KI for 4 h. After this time, extracts were prepared for analysis of phospho-Akt (upper panels) or for analysis of Ucp1 mRNA levels (lower panels).
Mouse Embryonic Fibroblasts (MEFs) were isolated at E13.5 as previously described^42. For insulin stimulation, primary MEFs were serum starved (0% FBS) for 12 h, followed by 60 min incubation with PBS and then stimulated with 1 μg/ml of insulin (Sigma) during 30 min. For oncogenic transformation, primary MEFs were retrovirally transduced with pLXSN-neo-E6 and either pWZL-blast-middle-T (kindly provided by Jean Zhao, Dana-Farber Cancer Institute, Boston) or pBABE-puro-EGFRL858R (kindly provided by William Sellers and Matthew Meyerson, Addgene plasmid #11012)^43. After the corresponding drug selection 20,000 cells were plated in 10 cm diameter plates, and 2 weeks later were fixed and stained with 20% Giemsa. Immortalized brown adipocyte cell lines were obtained from the interscapular BAT of 3-5 day-old neonates, treated with and cultured as previously described^33. For immortalization, cultures were retrovirally transduced with Large-T antigen (in vector pBABE-puro, kindly provided by James de Caprio, Dana Farber Cancer Institute, Boston). For the reprogramming of 3T3-L1 adipocytes into brownadipocytes, we followed the method previously reported^50. Briefly, 3T3-L1 cells were retrovirally transduced with pBABE-puro-Cebpb (kindly provided by Roger R. Gomis, IRB, Barcelona). After drug selection with puromycin, cells were grown to confluence and subsequently cultured for 48 h with “differentiation medium” (DMEM 10% FBS, 20 nM insulin, 1 nM T3, 1 μM rosiglitazone, 0.5 mM isobutylmethylxanthine, 125 nM indomethacin, 5 μM dexamethasone). After this, cells were exposed to “maintenance medium” (DMEM 10% FBS, 20 nM insulin, 1 nM T3) for 4 days. For the experiment shown in FIG. 4d, differentiated 3T3-L1/Cebpβ or non-differentiated neonatal immortalized brown adipocytes cultures were PBS washed and treated with “regular medium” (DMEM 10% FBS) containing 10 μM forskolin (Sigma) and/or or 1 μM Compound A for 4 h.
Immortalized brown adipocytes were obtained from the interscapular BAT of 3-5 day-old neonates and immortalized by retroviral transduction of Large-T antigen (in vector pBABE-puro, kindly provided by James de Caprio, Dana Farber Cancer Institute, Boston). […]
For RNA analyses, total RNA from pre-brown adipocytes was extracted using TRIZOL (Invitrogen). Reverse transcription was performed using random primers and Ready-To-Go™ You-Prime First-Strand Beads (GE Healthcare). Quantitative real time-PCR was performed using DNA Master Sybr Green I mix (Applied Biosystems) in an ABI PRISM 7700 thermocycler (Applied Biosystem). […]

[1] = system: Preadipocytes 3T3-L1 ectopically expressing C/Ebpβ differentiated into brown adipocytes; assay: 3T3-L1/C/Ebpβ differentiated brown adipocytes treated with PI3Ki; assay type: cell-based; conditions: 1 μM, 4 h
Method: Mouse Embryonic Fibroblasts (MEFs) were isolated at E13.5 as previously described^42. For insulin stimulation, primary MEFs were serum starved (0% FBS) for 12 h, followed by 60 min incubation with PBS and then stimulated with 1 μg/ml of insulin (Sigma) during 30 min. For oncogenic transformation, primary MEFs were retrovirally transduced with pLXSN-neo-E6 and either pWZL-blast-middle-T (kindly provided by Jean Zhao, Dana-Farber Cancer Institute, Boston) or pBABE-puro-EGFRL858R (kindly provided by William Sellers and Matthew Meyerson, Addgene plasmid #11012)^43. After the corresponding drug selection 20,000 cells were plated in 10 cm diameter plates, and 2 weeks later were fixed and stained with 20% Giemsa. Immortalized brown adipocyte cell lines were obtained from the interscapular BAT of 3-5 day-old neonates, treated with and cultured as previously described^33. For immortalization, cultures were retrovirally transduced with Large-T antigen (in vector pBABE-puro, kindly provided by James de Caprio, Dana Farber Cancer Institute, Boston). For the reprogramming of 3T3-L1 adipocytes into brownadipocytes, we followed the method previously reported^50. Briefly, 3T3-L1 cells were retrovirally transduced with pBABE-puro-Cebpb (kindly provided by Roger R. Gomis, IRB, Barcelona). After drug selection with puromycin, cells were grown to confluence and subsequently cultured for 48 h with “differentiation medium” (DMEM 10% FBS, 20 nM insulin, 1 nM T3, 1 μM rosiglitazone, 0.5 mM isobutylmethylxanthine, 125 nM indomethacin, 5 μM dexamethasone). After this, cells were exposed to “maintenance medium” (DMEM 10% FBS, 20 nM insulin, 1 nM T3) for 4 days. […]
Total RNA from tissues or fibroblasts was extracted using TRIZOL (Invitrogen). Reverse transcription was performed using random primers and Ready-To-Go™ You-Prime First-Strand Beads (GE Healthcare). Quantitative real time-PCR was performed using DNA Master Sybr Green I mix (Applied Biosystems) in an ABI PRISM 7700 thermocycler (Applied Biosystem). […]

[2] = system: 282 additional kinases including mTOR and DNAPK; assay: Inhibition of additional kinases (panel); assay type: biochemical
[3] = system: obese mice under high-fat diet; assay: Body weight and food intake of obese mice under high-fat diet; assay type: in vivo; conditions: 10 mg/kg, ad libitum high-fat food
Method: Obese mice under long-term high-fat (HFD) were dosed with Compound A or with the indicated PI3KI by gavage once per day, during 2 weeks, resting the intervening week-end, and always with ad libitum access to HFD. During the two weeks of treatment, it was scored the amount of food intake (upper left panel) and the change in body weight relative to the initiation of the treatment (upper right panel). The final relative change in body weight is also represented (lower panel). The weight of non-obese littermates (always fed with standard diet, SD) is marked for reference.
Mice were fed either with a standard chow diet (Harlan Teklad 2018, 18% calories from fat) or, when indicated, with a high fat diet (Research Diets D12451, 45% of total calories from fat). To measure food intake, mice were housed in metabolic cages during 5 days, and food and water intake, as well as, the output of faeces and urine were measured during the last 4 days. Body composition (fat and lean content) was determined by Dual energy X-ray Absorptiometry (DXA) (Lunar PIXImus Densitometer, GE Medical Systems). Image acquisition lasted 5 minutes with mice under anesthesia by inhalation of 2% isofluorane in 100% oxygen. The analysis of lean mass and fat mass was performed using a Region Of Interest (ROI) comprising the entire body. […]

[4] = alone or in combination with forskolin

PI3K isoform p1103, sequence (P42338 whole entry, canonical isoform): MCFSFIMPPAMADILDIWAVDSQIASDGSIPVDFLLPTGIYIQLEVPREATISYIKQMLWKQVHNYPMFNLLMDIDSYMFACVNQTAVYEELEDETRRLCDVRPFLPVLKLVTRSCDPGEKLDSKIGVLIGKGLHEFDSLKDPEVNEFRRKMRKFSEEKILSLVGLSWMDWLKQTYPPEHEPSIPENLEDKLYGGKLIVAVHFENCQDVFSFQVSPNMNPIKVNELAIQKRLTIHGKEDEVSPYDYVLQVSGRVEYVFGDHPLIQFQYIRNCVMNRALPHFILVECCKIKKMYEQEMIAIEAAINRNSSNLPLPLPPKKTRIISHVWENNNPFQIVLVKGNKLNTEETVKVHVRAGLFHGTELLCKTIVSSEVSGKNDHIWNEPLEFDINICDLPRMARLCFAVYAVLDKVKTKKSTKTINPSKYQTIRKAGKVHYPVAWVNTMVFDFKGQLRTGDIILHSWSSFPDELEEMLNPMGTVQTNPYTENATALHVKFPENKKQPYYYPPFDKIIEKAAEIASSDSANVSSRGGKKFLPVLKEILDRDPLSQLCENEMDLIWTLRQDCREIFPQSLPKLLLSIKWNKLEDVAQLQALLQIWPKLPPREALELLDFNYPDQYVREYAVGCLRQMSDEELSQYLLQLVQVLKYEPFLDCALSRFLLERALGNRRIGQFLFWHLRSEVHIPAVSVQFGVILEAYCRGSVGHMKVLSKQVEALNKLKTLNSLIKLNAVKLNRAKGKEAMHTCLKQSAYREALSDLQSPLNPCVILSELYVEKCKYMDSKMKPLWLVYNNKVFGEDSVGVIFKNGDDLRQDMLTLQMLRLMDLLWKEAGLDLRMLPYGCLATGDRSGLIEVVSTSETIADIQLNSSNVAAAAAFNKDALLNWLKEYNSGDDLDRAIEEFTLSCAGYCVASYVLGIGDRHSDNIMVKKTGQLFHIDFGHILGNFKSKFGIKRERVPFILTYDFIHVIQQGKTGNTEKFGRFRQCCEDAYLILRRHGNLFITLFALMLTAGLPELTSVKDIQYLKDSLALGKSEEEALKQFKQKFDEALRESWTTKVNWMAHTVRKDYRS
PI3K isoform p1103, sequence (P27986 whole entry partner, canonical isoform): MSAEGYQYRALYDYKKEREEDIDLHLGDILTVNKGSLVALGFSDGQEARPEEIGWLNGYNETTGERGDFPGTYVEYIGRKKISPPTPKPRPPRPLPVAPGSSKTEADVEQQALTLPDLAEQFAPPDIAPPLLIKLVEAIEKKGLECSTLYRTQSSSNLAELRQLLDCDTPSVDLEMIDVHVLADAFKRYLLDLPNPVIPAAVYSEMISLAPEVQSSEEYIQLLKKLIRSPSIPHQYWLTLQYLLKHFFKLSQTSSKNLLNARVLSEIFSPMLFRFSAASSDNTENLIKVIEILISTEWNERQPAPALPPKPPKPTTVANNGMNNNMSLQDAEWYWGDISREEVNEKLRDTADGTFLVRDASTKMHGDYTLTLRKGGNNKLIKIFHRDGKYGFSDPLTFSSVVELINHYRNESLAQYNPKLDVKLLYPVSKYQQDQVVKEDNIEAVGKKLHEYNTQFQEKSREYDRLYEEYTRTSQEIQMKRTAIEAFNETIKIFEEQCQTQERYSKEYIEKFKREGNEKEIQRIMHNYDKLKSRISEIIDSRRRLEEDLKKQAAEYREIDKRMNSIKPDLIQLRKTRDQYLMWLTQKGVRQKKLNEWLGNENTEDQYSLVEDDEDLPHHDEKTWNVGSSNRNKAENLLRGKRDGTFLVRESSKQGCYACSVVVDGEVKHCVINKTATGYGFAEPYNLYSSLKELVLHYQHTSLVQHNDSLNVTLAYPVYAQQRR

Compound: CS(=O)(=O)N1CCN(Cc2cn3c(Cl)c(-c4cnc(N)nc4)nc(N4CCOCC4)c3n2)CC1 [Compound A]
- Ki (PI3K isoform p1103): > 100 nM
- inhibition of the phosphorylation of Akt (pre-brown adipocytes; 1 microM): measurable inhibition
- up-regulation of Ucp1 mRNA levels (pre-brown adipocytes; 10-20 microM): 8-20 fold
- inhibition of the phosphorylation of Akt (pre-brown adipocytes; 10 microM): complete inhibition
- expression of Ucp1 (pre-brown adipocytes; immortalized neonatal brown adipocytes (three independent lines), 1 μM): upregulated
- levels of phospho-Akt [1]: severe decrease
- Pgc1α expression [1, 4]: upregulation
- Ucp1 expression [1, 4]: upregulation
- IC50 [2]: < 1000 nM
- decrease of body weight ([3]; gavage once a day for 2 weeks): approx. 10%
- food intake ([3]; during treatment): did not change significantly

From patent publication US9993554B2 (CENTRO NACIONAL DE INVESTIGACIONES ONCOLOGICAS (CNIO), priority 2010, dated 2018)
